The results in this text go back to US12084430B2, “Tricyclic urea compounds as JAK2 V617F inhibitors” (Incyte Corporation, priority 2022, dated 2024).

Read-outs that look alike come from different tables or passages of the source.

The target of one data set is T1, FLT3 (Homo sapiens, UniProt P36888).
T1 sequence (P36888 27-993): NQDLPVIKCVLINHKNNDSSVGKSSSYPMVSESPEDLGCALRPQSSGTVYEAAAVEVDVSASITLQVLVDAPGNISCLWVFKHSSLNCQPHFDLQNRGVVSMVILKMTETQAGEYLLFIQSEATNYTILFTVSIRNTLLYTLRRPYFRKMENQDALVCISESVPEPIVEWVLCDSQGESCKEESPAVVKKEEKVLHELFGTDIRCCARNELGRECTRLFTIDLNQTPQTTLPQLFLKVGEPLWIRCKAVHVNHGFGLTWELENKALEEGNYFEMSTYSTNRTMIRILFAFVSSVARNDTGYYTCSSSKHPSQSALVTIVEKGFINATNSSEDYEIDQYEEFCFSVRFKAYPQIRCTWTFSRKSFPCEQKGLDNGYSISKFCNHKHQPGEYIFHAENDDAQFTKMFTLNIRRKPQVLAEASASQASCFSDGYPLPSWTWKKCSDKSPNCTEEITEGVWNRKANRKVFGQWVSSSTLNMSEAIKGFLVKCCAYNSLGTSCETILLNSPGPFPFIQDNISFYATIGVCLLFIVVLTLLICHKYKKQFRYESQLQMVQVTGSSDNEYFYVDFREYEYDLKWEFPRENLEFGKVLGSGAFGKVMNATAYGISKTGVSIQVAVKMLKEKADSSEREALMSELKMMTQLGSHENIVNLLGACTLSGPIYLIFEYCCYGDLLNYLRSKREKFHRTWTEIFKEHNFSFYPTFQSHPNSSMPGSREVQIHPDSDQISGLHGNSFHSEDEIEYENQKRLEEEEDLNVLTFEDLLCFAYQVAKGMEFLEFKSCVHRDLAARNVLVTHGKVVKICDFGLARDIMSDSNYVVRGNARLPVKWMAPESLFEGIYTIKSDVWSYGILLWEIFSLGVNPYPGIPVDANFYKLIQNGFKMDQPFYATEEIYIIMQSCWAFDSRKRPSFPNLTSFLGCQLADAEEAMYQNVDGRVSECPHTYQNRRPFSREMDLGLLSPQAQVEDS
The experiment in a line: FLT3 enzymatic assay. Format: biochemical. Conditions: 1 mM ATP. A digest of the protocol:
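Kinase reaction at room temperature in HEPES 50 mM pH 7.0 with 10 mM MgCl2, 1 mM DTT: 0.011 nM FLT3, 1 mM ATP, 500 nM biotinylated TK substrate, 0.5% DMSO. After 60 min, HTRF read as 665/620 nm ratio; IC50 from fit of percent control activity versus log concentration.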

Data set [1] has as its target T2, catalytic domain (JH1, amino acids 826-1132) of human JAK2 (Homo sapiens, UniProt O60674).
T2 construct: catalytic domain (JH1, amino acids 826-1132) of human JAK2; FLAG (N); biotin (biotinylated); purchased Carna Biosciences 08-445-20N; host or cells: baculovirus expression system
The experiment in a line: JAK2 LanthaScreen JH1 binding assay. As to conditions: read-out: JH1 Bind IC50. On the procedure:
Example A. JAK2 LanthaScreen […] Binding Assay
JAK2 JH1 binding assay utilizes catalytic domain (JH1, amino acids 826-1132) of human JAK2 expressed as N-terminal FLAG-tagged, biotinylated protein in a baculovirus expression system (Carna Biosciences, Product #08-445-20N). The assay was conducted in black 384-well polystyrene plates in a final reaction volume of 20 μL. JAK2 JH1 (1.5 nM) was incubated with compounds (100 nL serially diluted in DMSO) in the presence of 50 nM fluorescent JAK2-JH1 tracer and 0.5 nM Streptavidin-Tb cryptate (Cisbio Part #610SATLB) in assay buffer (50 mM Tris, pH=7.5, 10 mM MgCl2, 0.01% Brij-35, 0.1% BSA, 1 mM EGTA, 5% Glycerol and 5 mM DTT). Non-specific binding was accessed in the presence of 2 mM ATP. After incubation for 2 hours at 25° C., LanthaScreen signals were read on a PHERAstar FS plate reader (BMG LABTECH). Data was analyzed with IDBS XLfit and GraphPad Prism 5.0 software using a four parameter dose response curve to determine IC50 for each compound.
On the technique in general: TR-FRET usually uses a lanthanide donor and a delayed reading to cut background.

A short description of data set [2]: In vivo pharmacokinetics, rat. On the set-up: species or system Sprague Dawley rats. Conditions: male, Sprague Dawley, plasma, oral 3.0 mg/kg. On the procedure: Example H. In Vivo Pharmacokinetics
Test compounds were administered to male Sprague Dawley rats or male and female Cynomolgus monkeys intravenously or via oral gavage. For intravenous (IV) dosing, test compounds were dosed at 1 mg/kg using a formulation of 10% dimethylacetamide (DMAC), 10% propylene glycol (PG) in acidified saline via IV bolus for rat or 10 min IV infusion for monkey. For oral (PO) dosing, test compounds were dosed at 3.0 mg/kg using 5% DMAC in 0.5% methylcellulose in citrate buffer (pH˜2.5). Blood samples were collected at predose and various time points up to 24 hours postdose. All blood samples were collected using EDTA as the anticoagulant and centrifuged to obtain plasma samples. The plasma concentrations of test compounds were determined by LC-MS/MS methods. The measured plasma concentrations were used to calculate PK parameters by standard noncompartmental methods using Phoenix® WinNonlin software program (version 8.0, Pharsight Corporation) or similar software. In rats and monkeys, cassette dosing of test compounds were conducted to obtain preliminary PK parameters. In vivo pharmacokinetic experiments with male beagle dogs may be performed under the conditions described above.

T2 sequence (O60674 826-1132): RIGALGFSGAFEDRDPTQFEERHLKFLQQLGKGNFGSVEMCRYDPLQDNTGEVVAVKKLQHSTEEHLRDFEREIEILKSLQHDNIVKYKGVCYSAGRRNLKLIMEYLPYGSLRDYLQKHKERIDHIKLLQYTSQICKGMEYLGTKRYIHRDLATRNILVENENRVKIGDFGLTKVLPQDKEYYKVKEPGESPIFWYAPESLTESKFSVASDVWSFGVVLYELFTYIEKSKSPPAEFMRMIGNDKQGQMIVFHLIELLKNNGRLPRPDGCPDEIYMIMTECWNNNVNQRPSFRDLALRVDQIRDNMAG

The term IC50 denotes the concentration that inhibits the measured activity by half. As for `COc1nn(C)cc1-c1[nH]c2ncc3c(c2c1-c1ccc2c(cnn2C)c1)n([C@H]1CC[C@@H](CC#N)CC1)c(=O)n3C` [E, reference compound], the IC50 on FLT3 is 250 to 1250 nM.
For the compound `[2H]C([2H])([2H])n1cc(-c2[nH]c3ncc4c(c3c2-c2ccc3c(c2)COC3(C)C)n([C@@H]2CC[C@@H](NC(=O)OC)C2)c(=O)n4C)c(F)n1` [Example 11, Methyl ((1R,3R)-3-(8-(1,1-dimethyl-1,3-dihydroisobenzofuran-5-yl)-7-(3-fluoro-1-(methyl-d3)-1H-pyrazol-4-yl)-3-methyl-2-oxo-3,6-dihydroimidazo[4,5-d]pyrrolo[2,3-b]pyridin-1(2H)-yl)cyclopentyl)carbamate], the results for the IC50 (in data set [1] (Table A); in data set [1] (Table C); at FLT3) were more than 1000 nM, more than 1000 nM and more than 2500 nM, respectively.
Consider `[2H]C([2H])([2H])n1c(=O)n([C@@H]2CC[C@@H](NC(=O)OC)C2)c2c3c(-c4ccc5c(c4)COC5(C)C)c(-c4cn(CC(F)F)nc4F)[nH]c3ncc21` [Example 12, Methyl ((1R,3R)-3-(7-(1-(2,2-difluoroethyl)-3-fluoro-1H-pyrazol-4-yl)-8-(1,1-dimethyl-1,3-dihydroisobenzofuran-5-yl)-3-(methyl-d3)-2-oxo-3,6-dihydroimidazo[4,5-d]pyrrolo[2,3-b]pyridin-1(2H)-yl)cyclopentyl)carbamate], for which the IC50 is more than 1000 nM in data set [1] (Table A), more than 1000 nM in data set [1] (Table C) and more than 2500 nM on FLT3.
Broadly, the AUC is the area under the concentration-time curve, a measure of exposure. Read a high AUC as more exposure. Consider `[2H]C([2H])([2H])n1cc(-c2[nH]c3ncc4c(c3c2-c2ccc3c(cnn3C(C)C)c2)n([C@@H]2CC[C@@H](NC(=O)OC)C2)c(=O)n4C([2H])([2H])[2H])c(F)n1` [Example 13, Methyl ((1R,3R)-3-(7-(3-fluoro-1-(methyl-d3)-1H-pyrazol-4-yl)-8-(1-isopropyl-1H-indazol-5-yl)-3-(methyl-d3)-2-oxo-3,6-dihydroimidazo[4,5-d]pyrrolo[2,3-b]pyridin-1(2H)-yl)cyclopentyl)carbamate], for which the results for the IC50 (in data set [1] (Table A); in data set [1] (Table C); against FLT3) were more than 1000 nM, more than 1000 nM and more than 2500 nM, respectively. Moreover, the AUC in data set [2] fell in the range of 0.5 to 1.5 µM·h.
In the case of `[2H]C([2H])([2H])n1cc(-c2[nH]c3ncc4c(c3c2-c2ccc3c(cnn3CC(F)F)c2)n([C@@H]2CC[C@@H](NC(=O)OC)C2)c(=O)n4C([2H])([2H])[2H])c(F)n1` [Example 14, Methyl ((1R,3R)-3-(8-(1-(2,2-difluoroethyl)-1H-indazol-5-yl)-7-(3-fluoro-1-(methyl-d3)-1H-pyrazol-4-yl)-3-(methyl-d3)-2-oxo-3,6-dihydroimidazo[4,5-d]pyrrolo[2,3-b]pyridin-1(2H)-yl)cyclopentyl)carbamate], the IC50 was more than 1000 nM in data set [1] (Table A), more than 1000 nM in data set [1] (Table C) and 1250 to 2500 nM against FLT3. The same compound gave an AUC in data set [2] of 0.5 to 1.5 µM·h.
With `[2H]C([2H])([2H])n1cc(-c2[nH]c3ncc4c(c3c2-c2ccc3c(cnn3C(C)C)c2)n([C@@H]2CC[C@@H](NC(=O)OC)C2)c(=O)n4C)c(F)n1` [Example 16, Methyl ((1R,3R)-3-(7-(3-fluoro-1-(methyl-d3)-1H-pyrazol-4-yl)-8-(1-isopropyl-1H-indazol-5-yl)-3-methyl-2-oxo-3,6-dihydroimidazo[4,5-d]pyrrolo[2,3-b]pyridin-1(2H)-yl)cyclopentyl)carbamate], the results for the IC50 (in data set [1] (Table A); in data set [1] (Table C); on FLT3) were more than 1000 nM, more than 1000 nM and 1250 to 2500 nM, respectively.
With `[2H]C([2H])([2H])n1cc(-c2[nH]c3ncc4c(c3c2-c2cc(F)c3c(cnn3C([2H])([2H])[2H])c2)n([C@@H]2CC[C@@H](NC(=O)OC)C2)c(=O)n4C([2H])([2H])[2H])c(F)n1` [Example 17, Methyl ((1R,3R)-3-(8-(7-fluoro-1-(methyl-d3)-1H-indazol-5-yl)-7-(3-fluoro-1-(methyl-d3)-1H-pyrazol-4-yl)-3-(methyl-d3)-2-oxo-3,6-dihydroimidazo[4,5-d]pyrrolo[2,3-b]pyridin-1(2H)-yl)cyclopentyl)carbamate], the IC50 is more than 1000 nM in data set [1] (Table A), more than 1000 nM in data set [1] (Table C) and 1250 to 2500 nM on FLT3.
Consider `[2H]C([2H])([2H])n1cc(-c2[nH]c3ncc4c(c3c2-c2ccc3c(cnn3CC(F)F)c2)n([C@@H]2CC[C@@H](NC(=O)OC)C2)c(=O)n4C)c(F)n1` [Example 18, Methyl ((1R,3R)-3-(8-(1-(2,2-difluoroethyl)-1H-indazol-5-yl)-7-(3-fluoro-1-(methyl-d3)-1H-pyrazol-4-yl)-3-methyl-2-oxo-3,6-dihydroimidazo[4,5-d]pyrrolo[2,3-b]pyridin-1(2H)-yl)cyclopentyl)carbamate], for which the IC50 in data set [1] (Table A) is more than 1000 nM; in data set [1] (Table C), more than 1000 nM; against FLT3, 1250 to 2500 nM.
Turning to `[2H]C([2H])([2H])n1c(=O)n([C@@H]2CC[C@@H](NC(=O)OC)C2)c2c3c(-c4ccc5c(c4)COC5(C)C)c(-c4cn(C([2H])([2H])C([2H])([2H])[2H])nc4F)[nH]c3ncc21` [Example 19, Methyl ((1R,3R)-3-(8-(1,1-dimethyl-1,3-dihydroisobenzofuran-5-yl)-7-(1-(ethyl-d5)-3-fluoro-1H-pyrazol-4-yl)-3-(methyl-d3)-2-oxo-3,6-dihydroimidazo[4,5-d]pyrrolo[2,3-b]pyridin-1(2H)-yl)cyclopentyl)carbamate], the IC50 in data set [1] (Table A) was more than 1000 nM; in data set [1] (Table C) it was more than 1000 nM; against FLT3 it was more than 2500 nM.
Consider `[2H]C([2H])([2H])n1c(=O)n([C@@H]2CC[C@@H](NC(=O)OC)C2)c2c3c(-c4ccc5c(c4)COC5(C)C)c(-c4cn(CC)nc4F)[nH]c3ncc21` [Example 20, Methyl ((1R,3R)-3-(8-(1,1-dimethyl-1,3-dihydroisobenzofuran-5-yl)-7-(1-ethyl-3-fluoro-1H-pyrazol-4-yl)-3-(methyl-d3)-2-oxo-3,6-dihydroimidazo[4,5-d]pyrrolo[2,3-b]pyridin-1(2H)-yl)cyclopentyl)carbamate], for which the IC50 is more than 1000 nM in data set [1] (Table A), more than 1000 nM in data set [1] (Table C) and more than 2500 nM at FLT3.
Turning to `[2H]C([2H])([2H])n1ncc2cc(-c3c(-c4cn(C([2H])(C([2H])([2H])[2H])C([2H])([2H])[2H])nc4F)[nH]c4ncc5c(c34)n([C@@H]3CC[C@@H](NC(=O)OC)C3)c(=O)n5C([2H])([2H])[2H])ccc21` [Example 21, Methyl ((1R,3R)-3-(7-(3-fluoro-1-(propan-2-yl-d7)-1H-pyrazol-4-yl)-3-(methyl-d3)-8-(1-(methyl-d3)-1H-indazol-5-yl)-2-oxo-3,6-dihydroimidazo[4,5-d]pyrrolo[2,3-b]pyridin-1(2H)-yl)cyclopentyl)carbamate], the IC50 in data set [1] (Table A) was more than 1000 nM; in data set [1] (Table C) it was more than 1000 nM; against FLT3, 1250 to 2500 nM.
